Results on 59 compounds are retold here after patent US20150004134A1, “TREATMENT OF CANCER WITH HETEROCYCLIC INHIBITORS OF GLUTAMINASE” (Calithera Biosciences, Inc., priority 2012, published 2015).

This assay has as its system P493-6 (myc "on") cells. The assay can be described thus: Cell Proliferation Assay. The assay is classed as cell-based. The conditions noted are these: P493-6, 72 h, read-out: Cell prolif P493 72 h IC50, P493 cells, 72 h. As for the experimental part: P493-6 (myc “on”) cells were maintained in growth media (RPMI-1640, 10% FBS, 2 mM glutamine, 100 units/ml Penicillin and 100 μg/ml streptomycin) at 37° C. with 5% CO2. For compound assay, P493-6 cells were plated in 96-well V-bottom plates on the day of compound addition in 50 μl of growth media at a cell density of 200,000 cells/ml (10,000 cells/well). Compounds were serially diluted in 100% DMSO at 200-times the final concentration. Compounds were diluted 100-fold into growth media and then 50 μl of this mixture was added to cell plates making the final concentration of DMSO 0.5%. Cells were incubated with compound for 72 hrs at 37° C. with 5% CO2 and analyzed for antiproliferative effects either by Cell Titer Glo (Promega) or FACS analysis using the Viacount (Millipore) kit on the Guava instrument.
With `O=C(Cc1ccccc1)Nc1nnc(CCCc2nnc(NC(=O)Cc3ccccc3)s2)s1` [Compound 72, N,N′-[5,5′-(propane-1,3-diyl)-bis(1,3,4-thiadiazole-5,2-diyl)]-bis(2-phenylacetamide)], the 50% inhibitory concentration (IC50) came to 470 nM.

Consider `O=C(Nc1nnc(CCCCc2nnc(NC(=O)C(c3ccccc3)N3CCNCC3)s2)s1)C(c1ccccc1)N1CCNCC1` (centres unmarked) [Compound 77], for which the IC50 is 34000 nM.

For the compound `O=C(Cc1ccccc1)Nc1nnc(CCSCCc2nnc(NC(=O)C(c3ccccc3)N3CCNCC3)s2)s1` (centres unmarked) [Compound 78], the IC50 stood at 10000 nM.

Take `O=C(Nc1nnc(CCSCCc2nnc(NC(=O)C(c3ccccc3)N3CCNCC3)s2)s1)C(c1ccccc1)N1CCNCC1` (centres unmarked) [Compound 79]: the half-maximal inhibitory concentration (IC50) was 2000 nM.

`O=C(Nc1nnc(CCCCc2nnc(NC(=O)[C@H](O)c3ccccc3)s2)s1)[C@H](O)c1ccccc1` [Compound 80]: the IC50 amounted to 1300 nM.

Consider `O=C(Nc1nnc(CCSCCc2nnc(NC(=O)[C@H](O)c3ccccc3)s2)s1)[C@H](O)c1ccccc1` [Compound 81], for which the IC50 was determined as 7600 nM.

For the compound `O=C(Cc1ccco1)Nc1nnc(CCSCCc2nnc(NC(=O)Cc3ccco3)s2)s1` [Compound 82], the half-inhibitory concentration (IC50) was found to be 1300 nM.

With `O=C(CC1CC1)Nc1nnc(CCSCCc2nnc(NC(=O)CC3CC3)s2)s1` [Compound 83], the IC50 amounted to 1400 nM.

Consider `O=C(Cc1ccsc1)Nc1nnc(CCSCCc2nnc(NC(=O)Cc3ccsc3)s2)s1` [Compound 84], for which the half-maximal inhibitory concentration (IC50) was 890 nM.

In the case of `O=C(CC1CC1)Nc1nnc(CCCCc2nnc(NC(=O)CC3CC3)s2)s1` [Compound 85], the IC50 was 1800 nM.

Regarding `O=C(Cc1ccco1)Nc1nnc(CCCCc2nnc(NC(=O)Cc3ccco3)s2)s1` [Compound 86], the IC50 was 520 nM.

As to `O=C(Cc1cccs1)Nc1nnc(CCCCc2nnc(NC(=O)Cc3cccs3)s2)s1` [Compound 87], the IC50 was 60 nM.

Regarding `O=C(Cc1ccsc1)Nc1nnc(CCCCc2nnc(NC(=O)Cc3ccsc3)s2)s1` [Compound 88], the IC50 came to 120 nM.

As for `O=C(Nc1nnc(CCCCc2nnc(NC(=O)[C@@H](O)c3ccccc3)s2)s1)[C@@H](O)c1ccccc1` [Compound 92], the IC50 amounted to 470 nM.

Turning to `O=C(Nc1nnc(CCSCCc2nnc(NC(=O)[C@@H](O)c3ccccc3)s2)s1)[C@@H](O)c1ccccc1` [Compound 93], the IC50 came out at 2000 nM.

`O=C(Nc1nnc(CCCCc2nnc(NC(=O)C3CC(O)c4ccccc43)s2)s1)C1CC(O)c2ccccc21` (centres unmarked) [Compound 94]: the IC50 is 470 nM.

Turning to `O=C(Nc1nnc(CCSCCc2nnc(NC(=O)C3CCOC3)s2)s1)C1CCOC1` (centres unmarked) [Compound 95], the IC50 was 45000 nM.

As to `Cc1cc(C)n(CC(=O)Nc2nnc(CCSCCc3nnc(NC(=O)Cn4nc(C)cc4C)s3)s2)n1` [Compound 97], the half-maximal inhibitory concentration (IC50) was 17000 nM.

For the compound `CC(C)(C)OC(=O)Nc1cccc(CC(=O)Nc2nnc(CCSCCc3nnc(NC(=O)Cc4cccc(NC(=O)OC(C)(C)C)c4)s3)s2)c1` [Compound 98], the IC50 is 3900 nM.

With `COCCC(=O)Nc1nnc(CCCCc2nnc(NC(=O)CCOC)s2)s1` [Compound 100], the 50% inhibitory concentration (IC50) was 9000 nM.

In the case of `COCCC(=O)Nc1nnc(CCSCCc2nnc(NC(=O)CCOC)s2)s1` [Compound 101], the 50% inhibitory concentration (IC50) was determined as 17000 nM.

Take `O=C(Cc1cccc(F)c1)Nc1nnc(CCSCCc2nnc(NC(=O)Cc3cccc(F)c3)s2)s1` [Compound 102]: the half-inhibitory concentration (IC50) is 1400 nM.

With `CC1(C)OC(=O)[C@@H](CC(=O)Nc2nnc(CCCCc3nnc(NC(=O)C[C@H]4OC(C)(C)OC4=O)s3)s2)O1` [Compound 103], the 50% inhibitory concentration (IC50) is over 50000 nM.

`CCC(C)C(=O)Nc1nnc(CCSCCc2nnc(NC(=O)C(C)CC)s2)s1` (centres unmarked) [Compound 105]: the IC50 was 119000 nM.

Regarding `CCC(C)C(=O)Nc1nnc(CCCCc2nnc(NC(=O)C(C)CC)s2)s1` (centres unmarked) [Compound 107], the IC50 amounted to 1200 nM.

With `CC(C)(C)OC(=O)N1CCC(CC(=O)Nc2nnc(CCSCCc3nnc(NC(=O)CC4CCN(C(=O)OC(C)(C)C)CC4)s3)s2)CC1` [Compound 111], the IC50 was found to be 880 nM.

Take `CC(C)(C)OC(=O)N1CCCC(CC(=O)Nc2nnc(CCSCCc3nnc(NC(=O)CC4CCCN(C(=O)OC(C)(C)C)C4)s3)s2)C1` (centres unmarked) [Compound 112]: the 50% inhibitory concentration (IC50) is 890 nM.

For the compound `CC(C)(C)OC(=O)N1CCC(CC(=O)Nc2nnc(CCCCc3nnc(NC(=O)CC4CCN(C(=O)OC(C)(C)C)CC4)s3)s2)CC1` [Compound 114], the IC50 came to 560 nM.

`CC(C)(C)OC(=O)N1CCCC(CC(=O)Nc2nnc(CCCCc3nnc(NC(=O)CC4CCCN(C(=O)OC(C)(C)C)C4)s3)s2)C1` (centres unmarked) [Compound 115]: the IC50 is 1100 nM.

For `O=C(Cc1cccs1)Nc1nnc(CCSCCc2nnc(NC(=O)Cc3cccs3)s2)s1` [Compound 116], the half-inhibitory concentration (IC50) is 720 nM.

With `COc1ccc2c(c1)CC(C(=O)Nc1nnc(CCSCCc3nnc(NC(=O)C4Cc5cc(OC)ccc5O4)s3)s1)O2` (centres unmarked) [Compound 117], the concentration for half-maximal inhibition (IC50) was found to be 6200 nM.

Consider `O=C(Nc1nnc(CCSCCc2nnc(NC(=O)C3Cc4cc(Br)ccc4O3)s2)s1)C1Cc2cc(Br)ccc2O1` (centres unmarked) [Compound 118], for which the IC50 is 36000 nM.

Consider `CC1(C(=O)Nc2nnc(CCSCCc3nnc(NC(=O)C4(C)CCCO4)s3)s2)CCCO1` (centres unmarked) [Compound 119], for which the IC50 is 13000 nM.

Regarding `O=C(Nc1nnc(CCCCc2nnc(NC(=O)C3Cc4cc(Cl)ccc4O3)s2)s1)C1Cc2cc(Cl)ccc2O1` (centres unmarked) [Compound 120], the IC50 turned out to be 38000 nM.

Turning to `COc1ccc2c(c1)CC(C(=O)Nc1nnc(CCCCc3nnc(NC(=O)C4Cc5cc(OC)ccc5O4)s3)s1)O2` (centres unmarked) [Compound 121], the IC50 worked out at 3500 nM.

On to `O=C(Nc1nnc(CCCCc2nnc(NC(=O)C3Cc4cc(Br)ccc4O3)s2)s1)C1Cc2cc(Br)ccc2O1` (centres unmarked) [Compound 122], for which the concentration for half-maximal inhibition (IC50) is 43000 nM.

In the case of `CC1(C(=O)Nc2nnc(CCCCc3nnc(NC(=O)C4(C)CCCO4)s3)s2)CCCO1` (centres unmarked) [Compound 123], the half-inhibitory concentration (IC50) is 6600 nM.

On to `O=C(C[C@@H](O)c1ccccc1)Nc1nnc(CCSCCc2nnc(NC(=O)C[C@@H](O)c3ccccc3)s2)s1` [Compound 126], for which the half-inhibitory concentration (IC50) came out at 12000 nM.

On to `O=C(C[C@@H](O)c1ccccc1)Nc1nnc(CCCCc2nnc(NC(=O)C[C@@H](O)c3ccccc3)s2)s1` [Compound 127], for which the concentration for half-maximal inhibition (IC50) is 450 nM.

Take `CC(=O)N[C@@H](C(=O)Nc1nnc(CCSCCc2nnc(NC(=O)[C@H](NC(C)=O)c3ccccc3)s2)s1)c1ccccc1` [Compound 128]: the IC50 was over 50000 nM.

In the case of `O=C(CC1CCNCC1)Nc1nnc(CCSCCc2nnc(NC(=O)CC3CCNCC3)s2)s1` [Compound 129], the 50% inhibitory concentration (IC50) is over 50000 nM.

As to `O=C(Nc1nnc(CCSCCc2nnc(NC(=O)C3Oc4ccccc4O3)s2)s1)C1Oc2ccccc2O1` [Compound 134], the IC50 came out at 28000 nM.

Take `O=C(Nc1nnc(CCCCc2nnc(NC(=O)C3COc4ccccc43)s2)s1)C1COc2ccccc21` (centres unmarked) [Compound 135]: the IC50 was 490 nM.

On to `O=C(Nc1nnc(CCCCc2nnc(NC(=O)C3Oc4ccccc4O3)s2)s1)C1Oc2ccccc2O1` [Compound 136], for which the IC50 was determined as 4700 nM.

On to `O=C(N[C@@H](CO)C(=O)Nc1nnc(CCSCCc2nnc(NC(=O)[C@H](CO)NC(=O)OCc3ccccc3)s2)s1)OCc1ccccc1` [Compound 138], for which the 50% inhibitory concentration (IC50) amounted to 2700 nM.

For the compound `N[C@@H](CO)C(=O)Nc1nnc(CCCCc2nnc(NC(=O)[C@@H](N)CO)s2)s1` [Compound 140], the half-inhibitory concentration (IC50) is over 50000 nM.

Regarding `CC[C@](O)(C(=O)Nc1nnc(CCSCCc2nnc(NC(=O)[C@@](O)(CC)c3ccccc3)s2)s1)c1ccccc1` [Compound 141], the 50% inhibitory concentration (IC50) stood at 4300 nM.

As to `CC[C@](O)(C(=O)Nc1nnc(CCCCc2nnc(NC(=O)[C@@](O)(CC)c3ccccc3)s2)s1)c1ccccc1` [Compound 143], the 50% inhibitory concentration (IC50) amounted to 2200 nM.

For the compound `O=C(Nc1nnc(CCCCc2nnc(NC(=O)[C@@H](O)Cc3ccccc3)s2)s1)[C@@H](O)Cc1ccccc1` [Compound 146], the concentration for half-maximal inhibition (IC50) amounted to 460 nM.

In the case of `CO[C@@H](C(=O)Nc1nnc(CCCCc2nnc(NC(=O)[C@H](OC)c3ccccc3)s2)s1)c1ccccc1` [Compound 147], the half-maximal inhibitory concentration (IC50) stood at 370 nM.

Consider `CO[C@H](C(=O)Nc1nnc(CCCCc2nnc(NC(=O)[C@@H](OC)c3ccccc3)s2)s1)c1ccccc1` [Compound 148], for which the IC50 was determined as 390 nM.

With `CC(CO)(CO)C(=O)Nc1nnc(CCCCc2nnc(NC(=O)C(C)(CO)CO)s2)s1` [Compound 151], the concentration for half-maximal inhibition (IC50) is over 50000 nM.

Regarding `CC(CO)(CO)C(=O)Nc1nnc(CCCCc2nnc(NC(=O)Cc3cccc(F)c3)s2)s1` [Compound 152, N,N′-(5-(4-(5-(2-(3-fluorophenyl)acetamido)-1,3,4-thiadiazol-2-yl)butyl)-1,3,4-thiadiazol-2-yl)-3-hydroxy-2-(hydroxymethyl)-2-methylpropanamide], the IC50 was determined as 1100 nM.

Take `O=C(C[C@@H](O)C(=O)O)Nc1nnc(CCCCc2nnc(NC(=O)C[C@@H](O)C(=O)O)s2)s1` [Compound 154]: the half-inhibitory concentration (IC50) is over 50000 nM.

Turning to `N#Cc1cccc(CC(=O)Nc2nnc(CCSCCc3nnc(NC(=O)Cc4cccc(C#N)c4)s3)s2)c1` [Compound 155], the IC50 amounted to 1900 nM.

Regarding `COc1cccc(CC(=O)Nc2nnc(CCSCCc3nnc(NC(=O)Cc4cccc(OC)c4)s3)s2)c1` [Compound 156], the 50% inhibitory concentration (IC50) stood at 630 nM.

Turning to `COc1ccc(CC(=O)Nc2nnc(CCSCCc3nnc(NC(=O)Cc4ccc(OC)c(OC)c4)s3)s2)cc1OC` [Compound 157], the half-inhibitory concentration (IC50) is 180 nM.

Take `CS(=O)(=O)c1cccc(CC(=O)Nc2nnc(CCSCCc3nnc(NC(=O)Cc4cccc(S(C)(=O)=O)c4)s3)s2)c1` [Compound 158]: the half-inhibitory concentration (IC50) was 8100 nM.

On to `COc1ccc(CC(=O)Nc2nnc(CCCCc3nnc(NC(=O)Cc4ccc(OC)c(OC)c4)s3)s2)cc1OC` [Compound 160], for which the IC50 was over 50000 nM.
